# Measurements from PMC7660103, “Discovery of Novel 3-Cyanopyridines as Survivin Modulators and Apoptosis Inducers” (Molecules, 2020).
# What was measured:
# [1] = system: prostate carcinoma (PC-3) cells; assay: SRB cytotoxicity assay, PC-3; format: cell-based, human; settings: for IC50: Homo sapiens, PC-3, SRB assay, 72 h, mean ± SD of three experiments; for Selectivity Index PC-3: SI = IC50 on WI-38/IC50 on PC-3
# Protocol: In the present work, sulforhodamine B (SRB) colorimetric assay was done to evaluate the cytotoxic activity of the synthesized 3-cyano pyridines 4a–4e, 5a–5e, and 6a–6e on three human cancer cell lines: prostate carcinoma (PC-3), breast cancer (MDA-MB-231) and hepatocellular carcinoma (HepG2) cell lines. 5-FU was used as a standard drug for comparison.
# Human cancer cells were obtained from Nawah Scientific Inc. (Mokatam, Cairo, Egypt). Cells were maintained in DMEM media containing […] streptomycin, 100 units/mL penicillin, and 10% heat-inactivated fetal bovine serum in humified, 5% (v/v) CO2 atmosphere at 37 °C.
# Cell viability was estimated using the SRB assay. Aliquots of 100 µL cell suspension (5 × 10^3 cells) in 96-well plates were incubated in complete media for 24 h. Cells were treated with a second aliquot of 100 µL media containing various concentrations of the tested compounds (0.01, 0.1, 1, 10, and 100 μM). After 72 h, cells were fixed by replacing media with 15 µL of 10% TCA and then incubated at 4 °C for 1 h. After that, TCA solution was removed, and the cells were washed 5 times with distilled water. Aliquots of 70 µL SRB solution (0.4% w/v) were added and incubated in a dark place at room temperature for 10 min. Plates were washed 3 times with 1% acetic acid and allowed to air dry overnight. Then, 150 µL of TRIS (10 mM) was added to dissolve protein-bound SRB stain. The absorbance was measured at 540 nm using BMG LABTECH®-FLUO star Omega microplate reader (Ortenberg, Germany).
# MDA-MB-231 cells [2] = assay: Cell cycle analysis by flow cytometry; format: cell-based, human; settings: MDA-MB-231, IC50 concentration, 24 h; for %Pre-G1: control 1.87; for %G2-M: control 4.38; for %S: control 35.21; for %G0-G1: control 60.41
# From the text: Survivin has been recognized to play dual roles in stimulating cell-cycle progression and in obstructing apoptosis. Additionally, survivin is known to be expressed mainly in the G2/M phase of the cell cycle. Therefore, it was significant to examine the ability of our promising compounds 5c and 5e to induce cell cycle arrest. […] As shown in Figure 2 and Table 3, both 5c and 5e caused an increase in the number of cells in the G2/M phase by 4.92 and 5.74 folds, respectively, compared to the control cells. At the same time, a decrease in the DNA content in the G0/G1 phase, and a slight decrease in the S phase cells were observed. […] Supplementary Material Figures S37–S39 contain the cell cycle analysis for control and compounds 5c and 5e.
# After that, cells were collected by trypsin and washed in saline buffered with phosphate. Then, they were fixed using ice-cold alcohol. Afterwards, cells were stained by a Cycle TESTTM PLUS DNA Reagent Kit (BD Biosciences, San Jose, CA, USA) according to the manufacturer’s directions. The distribution of the cells in the cell cycle was calculated using a FACS Calibur flow cytometer (BD Biosciences, San Jose, CA, USA).
# MDA-MB-231 cells [3] = assay: Annexin V-FITC/PI apoptosis assay; format: cell-based, human; settings: for total increase in apoptotic and necrotic cells compared to control: MDA-MB-231, Annexin V-FITC; for Percent of cell death: Apoptosis Late / Percent of cell death: Necrosis / Percent of cell death: Apoptosis Early / Percent of cell death: Total: MDA-MB-231, IC50 concentration, 48 h; for Percent of cell death: Apoptosis Late: control 0.31; for Percent of cell death: Necrosis: control 0.47; for Percent of cell death: Apoptosis Early: control 1.09; for Percent of cell death: Total: control 1.87
# Protocol: So, inhibiting survivin should result in increased spontaneous apoptosis in tumor cells. In this study, the apoptotic potential of 5c and 5e was further assessed using Annexin V-FITC assay.
# MDA-MB-231 cells were plated in 24-well tissue culture plates. […] After 48 h, cells that floated were collected from the medium. The adherent cells were separated using 0.05% trypsin. After that, a 10% FBS medium was added for inactivating trypsin. Following slow pipetting, the centrifugation of cells was done for 5 min at 1500× g. Then, the supernatant was discarded, and cells were then stained with double annexin V-fluorescein isothiocyanate in addition to propidium iodide (PI) staining following the manufacturer’s directions. Analysis of the cells was investigated using a FACScan flow cytometer.
# survivin = molecular target: T1, survivin (Homo sapiens, UniProt O15392); assay: Western blotting of survivin in MDA-MB-231 cells; format: cell-based; settings: for survivin expression (Western blot, in words): MDA-MB-231, 1, 5 and 10 µM
# T1 construct: Western blotting analysis in MDA-MB-231cells treated with different concentrations of both compounds; endogenous in cells; host or cells: MDA-MB-231
# Protocol: (§1) The ability of the 2-oxo-3-cyano pyridines 5c and 5e to cause an inhibition of survivin was evaluated by the use of Western blotting analysis in MDA-MB-231cells treated with different concentrations of both compounds (1, 5, and 10 µM). […] Furthermore, to test the effect of these compounds on some other IAP family proteins, the Western plot of Livin, XIAP, and C-IAP1 proteins was performed (Figure 6). […] The Supplementary Material Figures S40 and S41 contain western blotting analysis for 5c and 5e.
# (§2) MDA-MB-231 cancer cells were incubated with 5c and 5e at different concentrations (1, 5, and 10 µM) for 48 h. Afterwards, the medium was detached, and the cells were washed using PBS (10 mmol/L, pH 7.4). Then, the cells were incubated on cold lysis buffer (50 mmol/L Tris–HCl, 150 mmol/L NaCl, 1 mmol/L EGTA, 1 mmol/L EDTA, 20 mmol/L NaF, […], 0.5% NP40, 1% Triton X-100, 1 mmol/L PMSF (pH 7.4)) and a freshly added cocktail inhibitor (Inhibitor Cocktail Set III, Calbiochem, La Jolla, CA) above ice for 30 min. Then, MDA-MB-231 cells were collected and centrifuged at 12,000× g for 15 min.
# (§3) XIAp, Survivin, Livin, and cIAP1anti-mouse, anti-rabbit secondary antibodies, and GAPDH were purchased from Sigma-Aldrich, whereas the gel was obtained from BioRad. Polyacrylamide gels were moved to a nitrocellulose membrane in order to block in buffer (7% nonfat dry milk/1% Tween 20; in 20 mmol/L TBS (pH 7.6)) for 1 h and incubated for 2 h at room temperature with the suitable primary antibody in blocking buffer or overnight at 4 °C; then, they were incubated with secondary antibody HRP conjugate. Finally, the blots analysis was done using the imaging system.
# XIAP = assay: Western blotting of XIAP in MDA-MB-231 cells; format: cell-based, human; settings: for XIAP protein level (Western blot, in words): MDA-MB-231, 1, 5 and 10 µM
# Protocol: as §1, §2, §3
# T1 sequence (O15392 whole entry): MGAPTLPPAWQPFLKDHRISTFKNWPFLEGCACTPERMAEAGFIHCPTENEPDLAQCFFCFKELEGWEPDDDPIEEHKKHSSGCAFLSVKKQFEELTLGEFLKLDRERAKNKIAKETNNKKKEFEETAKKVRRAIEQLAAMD
Structure (SMILES),IC50 [1],Selectivity Index PC-3 [1],increase in the number of cells in the G2/M phase compared to control (MDA-MB-231 cells [2]),%Pre-G1 (MDA-MB-231 cells [2]),%G2-M (MDA-MB-231 cells [2]),%S (MDA-MB-231 cells [2]),%G0-G1 (MDA-MB-231 cells [2]),total increase in apoptotic and necrotic cells compared to control (MDA-MB-231 cells [3]),Percent of cell death: Apoptosis Late (MDA-MB-231 cells [3]),Percent of cell death: Necrosis (MDA-MB-231 cells [3]),Percent of cell death: Apoptosis Early (MDA-MB-231 cells [3]),Percent of cell death: Total (MDA-MB-231 cells [3]),"Survivin band % (survivin; MDA-MB-231, 1µM)","Survivin band Area (survivin; MDA-MB-231, 1µM)","Survivin band Height (survivin; MDA-MB-231, 1µM)","Survivin band Width (survivin; MDA-MB-231, 1µM)","Survivin band % (survivin; MDA-MB-231, 5µM)","Survivin band Area (survivin; MDA-MB-231, 5µM)","Survivin band Height (survivin; MDA-MB-231, 5µM)","Survivin band Width (survivin; MDA-MB-231, 5µM)",further results
"N#Cc1c(-c2ccc(Cl)cc2)cc(-c2ccc(OCc3ccc(F)cc3)cc2)[nH]c1=O [Compound 5c, 4-(4-Chlorophenyl)-6-(4-((4-fluorobenzyl)oxy)phenyl)-2-oxo-1,2-dihydropyridine-3-carbonitrile]",14.4 ± 0.38 µM,6.33,4.92 fold,16.32%,21.57%,33.16%,45.27%,8.72 fold,8.67%,2.58%,5.07%,16.32%,38.3%,2261,156,26,25.9%,1674,137,16,"cytotoxicity relative to 5-FU ([1]; cell line not specified (PC-3, MDA-MB-231, HepG2 tested)): nearly half that of 5-FU; Survivin band % (survivin; MDA-MB-231, 10µM): 15.6%; Survivin band Area (survivin; MDA-MB-231, 10µM): 1028; Survivin band Height (survivin; MDA-MB-231, 10µM): 121; Survivin band Width (survivin; MDA-MB-231, 10µM): 13; survivin expression (Western blot, in words) (survivin): remarkable inhibition of survivin expression; XIAP band % (XIAP; MDA-MB-231, 1µM): 16.3%; XIAP band Area (XIAP; MDA-MB-231, 1µM): 970; XIAP band Height (XIAP; MDA-MB-231, 1µM): 99; XIAP band Width (XIAP; MDA-MB-231, 1µM): 22; XIAP band % (XIAP; MDA-MB-231, 5µM): 15.1%; XIAP band Area (XIAP; MDA-MB-231, 5µM): 921; XIAP band Height (XIAP; MDA-MB-231, 5µM): 88; XIAP band Width (XIAP; MDA-MB-231, 5µM): 19; XIAP band % (XIAP; MDA-MB-231, 10µM): 14.2%; XIAP band Area (XIAP; MDA-MB-231, 10µM): 853; XIAP band Height (XIAP; MDA-MB-231, 10µM): 82; XIAP band Width (XIAP; MDA-MB-231, 10µM): 19; XIAP protein level (Western blot, in words) (XIAP): decreased the levels of these proteins"
"COc1ccc(-c2cc(-c3ccc(OCc4ccc(F)cc4)cc3)[nH]c(=O)c2C#N)cc1 [Compound 5e, 6-(4-((4-Fluorobenzyl)oxy)phenyl)-4-(4-methoxyphenyl)-2-oxo-1,2-dihydropyridine-3-carbonitrile]",4.46 ± 0.51 µM,22.99,5.74 fold,19.47%,25.16%,32.48%,42.36%,10.41 fold,10.91%,2.38%,6.18%,19.47%,31.4%,1368,120,22,25%,1079,108,19,"activity relative to 5-FU, PC-3 ([1]; cytotoxicity compared with 5-FU): twice the activity of 5-FU; Survivin band % (survivin; MDA-MB-231, 10µM): 19.1%; Survivin band Area (survivin; MDA-MB-231, 10µM): 1062; Survivin band Height (survivin; MDA-MB-231, 10µM): 105; Survivin band Width (survivin; MDA-MB-231, 10µM): 18; survivin expression (Western blot, in words) (survivin): remarkable inhibition of survivin expression; XIAP band % (XIAP; MDA-MB-231, 1µM): 15.4%; XIAP band Area (XIAP; MDA-MB-231, 1µM): 841; XIAP band Height (XIAP; MDA-MB-231, 1µM): 80; XIAP band Width (XIAP; MDA-MB-231, 1µM): 22; XIAP band % (XIAP; MDA-MB-231, 5µM): 8.6%; XIAP band Area (XIAP; MDA-MB-231, 5µM): 287; XIAP band Height (XIAP; MDA-MB-231, 5µM): 41; XIAP band Width (XIAP; MDA-MB-231, 5µM): 17; XIAP band % (XIAP; MDA-MB-231, 10µM): 4.7%; XIAP band Area (XIAP; MDA-MB-231, 10µM): 260; XIAP band Height (XIAP; MDA-MB-231, 10µM): 28; XIAP band Width (XIAP; MDA-MB-231, 10µM): 13; XIAP protein level (Western blot, in words) (XIAP): decreased the levels of these proteins"
